{"source": "patent US20260007133A1", "about": "“HERBICIDAL COMPOSITION COMPRISING AZINE COMPOUNDS” (BASF SE, priority 2022, published 2026)", "assay_type_in_all_cases": "in vivo", "key": {"Lolium multiflorum": {"tested_on": "Lolium multiflorum", "assay": "Greenhouse pre-emergence (PRE) herbicidal test on LOLMU", "conditions": "Lolium multiflorum, pre-emergence", "in_short": "(§1)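 Scoring ran from 0 (normal growth) to 100 (no emergence or above-ground parts fully destroyed) and was done 20 DAT. Application was pre-emergent in pots of loamy sand (~3.0% humus) sown per species. Plants grew at 10-25° C or 20-35° C by species.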"}, "Abutilon theophrasti [1]": {"tested_on": "Abutilon theophrasti", "assay": "Greenhouse pre-emergence (PRE) herbicidal test on ABUTH", "conditions": "Abutilon theophrasti, pre-emergence", "in_short": "as §1"}, "Amaranthus retroflexus [2]": {"tested_on": "Amaranthus retroflexus", "assay": "Greenhouse post-emergence (POST) herbicidal test on AMARE", "conditions": "Amaranthus retroflexus, post-emergence", "experimental": "(§2) The culture containers used were plastic pots containing loamy sand with approximately 3.0% of humus as substrate. The seeds of the test plants were sown separately for each species.\nFor the post-emergence treatment, the test plants were grown to a plant height of from 3 to 15 cm, depending on the plant habit, and only then treated with the active compounds which had been suspended or emulsified in water. To this end, the test plants were either sown directly, and grown in the same containers, or they were first grown separately as seedlings and transplanted into the test containers a few days prior to treatment.\n(§3) Depending on the species, the plants were kept at 10-25° C. and 20-35° C., respectively.\n(§4) The test period extended over 2 to 4 weeks. During this time, the plants were tended and their response to the individual treatments was evaluated.\n(§5) Evaluation was carried out using a scale from 0 to 100. 100 means no emergence of the plants, or complete destruction of at least the above-ground parts, and 0 means no damage or normal course of growth. A good herbicidal activity is given at values of at least 70, and very good herbicidal activity is given at values of at least 85.\nIf not stated differently, the respective components A and B, and if appropriate, C were formulated as a 5% by weight strength emulsion concentrate and, with addition of the amount of solvent system, introduced into the spray liquor used for applying the active compound.\n(§6) As indicated application was either post emergent (POST) at the respective growth stage (GS) of the weed (BBCH code), or pre-emergent (PRE). […]"}, "Ambrosia artemisiifolia": {"tested_on": "Ambrosia artemisiifolia", "assay": "Greenhouse pre-emergence (PRE) herbicidal test on AMBEL", "conditions": "Ambrosia artemisiifolia, pre-emergence"}, "Amaranthus retroflexus [3]": {"tested_on": "Amaranthus retroflexus", "assay": "Greenhouse pre-emergence (PRE) herbicidal test on AMARE", "conditions": "Amaranthus retroflexus, pre-emergence", "experimental": "as §2\n(§7) The containers were irrigated gently to promote germination and growth and subsequently covered with transparent plastic hoods until the plants had rooted.\nas §3, §4, §5, §6"}, "Geranium pusillum": {"tested_on": "Geranium pusillum", "assay": "Greenhouse post-emergence (POST) herbicidal test on GERPU", "conditions": "Geranium pusillum, post-emergence, 432 h, read-out: % activity", "in_short": "(§8)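 Plants grown in pots of loamy sand (~3.0% humus) to 3–15 cm height, then sprayed with compounds suspended or emulsified in water (formulated as 5% by weight emulsion concentrate). Kept at 10-25° C or 20-35° C by species; injury scored 0–100 (100 = complete destruction) at 20 DAT.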"}, "Abutilon theophrasti [4]": {"tested_on": "Abutilon theophrasti", "assay": "Greenhouse post-emergence (POST) herbicidal test on ABUTH", "conditions": "Abutilon theophrasti, post-emergence", "in_short": "as §8"}, "Digitaria sanguinalis": {"tested_on": "Digitaria sanguinalis", "assay": "Greenhouse post-emergence (POST) herbicidal test on DIGSA", "conditions": "Digitaria sanguinalis, post-emergence", "in_short": "as §8"}, "Echinochloa crus-galli [5]": {"tested_on": "Echinochloa crus-galli", "assay": "Greenhouse pre-emergence (PRE) herbicidal test on ECHCG", "conditions": "Echinochloa crus-galli, pre-emergence", "experimental": "as §2, §7, §3, §4, §5, §6"}, "Alopecurus myosuroides": {"tested_on": "Alopecurus myosuroides", "assay": "Greenhouse pre-emergence (PRE) herbicidal test on ALOMY", "conditions": "Alopecurus myosuroides, pre-emergence", "in_short": "as §1"}, "Euphorbia heterophylla [6]": {"tested_on": "Euphorbia heterophylla", "assay": "Greenhouse pre-emergence (PRE) herbicidal test on EPHHL", "conditions": "Euphorbia heterophylla, pre-emergence", "in_short": "as §1"}, "Echinochloa crus-galli [7]": {"tested_on": "Echinochloa crus-galli", "assay": "Greenhouse post-emergence (POST) herbicidal test on ECHCG", "conditions": "Echinochloa crus-galli, post-emergence, 432 h", "in_short": "as §8"}, "Euphorbia heterophylla [8]": {"tested_on": "Euphorbia heterophylla", "assay": "Greenhouse post-emergence (POST) herbicidal test on EPHHL", "conditions": "Euphorbia heterophylla, post-emergence, 432 h, read-out: % activity", "in_short": "as §8"}, "Commelina benghalensis": {"tested_on": "Commelina benghalensis", "assay": "Greenhouse pre-emergence (PRE) herbicidal test on COMBE", "conditions": "Commelina benghalensis, pre-emergence", "in_short": "as §1"}}}
{"compound": "CCC(=O)Nc1ccc(Cl)c(Cl)c1", "note": "[Propanil, propanil]", "values": [{"measurement": "inhibition at 250 g/ha", "setting": "Lolium multiflorum; 432 h, PRE, LOLMU, 250 gai/ha, 18 DAT, read-out: % activity solo application", "value": 0, "unit": "%"}, {"measurement": "inhibition at 500 g/ha", "setting": "Lolium multiflorum; 432 h, PRE, LOLMU, 500 gai/ha, 18 DAT, read-out: % activity solo application", "value": 0, "unit": "%"}, {"measurement": "pest or weed control at 250 g/ha", "setting": "Lolium multiflorum; 432 h, read-out: % activity", "value": 0, "unit": "%"}, {"measurement": "pest or weed control at 500 g/ha", "setting": "Lolium multiflorum; 432 h, read-out: % activity", "value": 0, "unit": "%"}, {"measurement": "pest or weed control at 500 g/ha", "setting": "Abutilon theophrasti [1]; 432 h, read-out: % activity", "value": 0, "unit": "%"}, {"measurement": "pest or weed control at 250 g/ha", "setting": "Amaranthus retroflexus [2]; 432 h, read-out: % activity", "value": 0, "unit": "%"}, {"measurement": "pest or weed control at 500 g/ha", "setting": "Amaranthus retroflexus [2]; 432 h, read-out: % activity", "value": 0, "unit": "%"}, {"measurement": "pest or weed control at 250 g/ha", "setting": "Ambrosia artemisiifolia; 432 h, read-out: % activity", "value": 0, "unit": "%"}, {"measurement": "pest or weed control at 500 g/ha", "setting": "Ambrosia artemisiifolia; 432 h, read-out: % activity", "value": 0, "unit": "%"}, {"measurement": "pest or weed control at 500 g/ha", "setting": "Amaranthus retroflexus [3]; 432 h, read-out: % activity", "value": 0, "unit": "%"}, {"measurement": "pest or weed control at 500 g/ha", "setting": "Geranium pusillum", "value": 40, "unit": "%"}, {"measurement": "pest or weed control at 250 g/ha", "setting": "Abutilon theophrasti [4]; 432 h, read-out: % activity", "value": 0, "unit": "%"}, {"measurement": "pest or weed control at 500 g/ha", "setting": "Abutilon theophrasti [4]; 432 h, read-out: % activity", "value": 5, "unit": "%"}, {"measurement": "inhibition at 250 g/ha", "setting": "Digitaria sanguinalis; 432 h, POST, DIGSA, 250 gai/ha, 18 DAT, read-out: % activity solo application", "value": 10, "unit": "%"}, {"measurement": "pest or weed control at 250 g/ha", "setting": "Digitaria sanguinalis; 432 h, read-out: % activity", "value": 10, "unit": "%"}, {"measurement": "pest or weed control at 500 g/ha", "setting": "Digitaria sanguinalis; 432 h, read-out: % activity", "value": 10, "unit": "%"}, {"measurement": "pest or weed control at 250 g/ha", "setting": "Echinochloa crus-galli [5]; 432 h, read-out: % activity", "value": 0, "unit": "%"}, {"measurement": "pest or weed control at 500 g/ha", "setting": "Echinochloa crus-galli [5]; 432 h, read-out: % activity", "value": 0, "unit": "%"}, {"measurement": "pest or weed control at 250 g/ha", "setting": "Alopecurus myosuroides; 432 h, read-out: % activity", "value": 0, "unit": "%"}, {"measurement": "pest or weed control at 500 g/ha", "setting": "Alopecurus myosuroides; 432 h, read-out: % activity", "value": 0, "unit": "%"}, {"measurement": "pest or weed control at 250 g/ha", "setting": "Euphorbia heterophylla [6]; 432 h, read-out: % activity", "value": 0, "unit": "%"}, {"measurement": "inhibition at 250 g/ha", "setting": "Echinochloa crus-galli [7]; POST, ECHCG, 250 gai/ha, 18 DAT, read-out: % activity solo application", "value": 0, "unit": "%"}, {"measurement": "inhibition at 500 g/ha", "setting": "Echinochloa crus-galli [7]; POST, ECHCG, 500 gai/ha, 18 DAT, read-out: % activity solo application", "value": 0, "unit": "%"}, {"measurement": "pest or weed control at 250 g/ha", "setting": "Echinochloa crus-galli [7]; read-out: % activity", "value": 0, "unit": "%"}, {"measurement": "pest or weed control at 500 g/ha", "setting": "Echinochloa crus-galli [7]; read-out: % activity", "value": 0, "unit": "%"}, {"measurement": "pest or weed control at 250 g/ha", "setting": "Euphorbia heterophylla [8]", "value": 0, "unit": "%"}, {"measurement": "pest or weed control at 250 g/ha", "setting": "Commelina benghalensis; 432 h, read-out: % activity", "value": 0, "unit": "%"}]}
{"compound": "CS(=O)(=O)NC(=O)c1cc(Oc2ccc(C(F)(F)F)cc2Cl)ccc1[N+](=O)[O-]", "note": "[Fomesafen, fomesafen]", "values": [{"measurement": "inhibition at […]", "setting": "Lolium multiflorum; 480 h, PRE, LOLMU, use rate 2.5 gai/ha, 20 DAT, read-out: solo application % activity", "value": 0, "unit": "%"}, {"measurement": "inhibition at 10 g/ha", "setting": "Lolium multiflorum; 480 h, PRE, LOLMU, use rate 10 gai/ha, 20 DAT, read-out: solo application % activity", "value": 0, "unit": "%"}, {"measurement": "inhibition at […]", "setting": "Abutilon theophrasti [1]; 480 h, PRE, ABUTH, use rate 2.5 gai/ha, 20 DAT, read-out: solo application % activity", "value": 0, "unit": "%"}, {"measurement": "inhibition at 10 g/ha", "setting": "Abutilon theophrasti [1]; 480 h, PRE, ABUTH, use rate 10 gai/ha, 20 DAT, read-out: solo application % activity", "value": 0, "unit": "%"}, {"measurement": "inhibition at 10 g/ha", "setting": "Amaranthus retroflexus [2]; 480 h, POST, AMARE, use rate 10 gai/ha, 20 DAT, read-out: solo application % activity", "value": 25, "unit": "%"}, {"measurement": "inhibition at […]", "setting": "Ambrosia artemisiifolia; 480 h, PRE, AMBEL, use rate 2.5 gai/ha, 20 DAT, read-out: solo application % activity", "value": 0, "unit": "%"}, {"measurement": "inhibition at 10 g/ha", "setting": "Ambrosia artemisiifolia; 480 h, PRE, AMBEL, use rate 10 gai/ha, 20 DAT, read-out: solo application % activity", "value": 0, "unit": "%"}, {"measurement": "inhibition at […]", "setting": "Amaranthus retroflexus [3]; 480 h, PRE, AMARE, use rate 2.5 gai/ha, 20 DAT, read-out: solo application % activity", "value": 0, "unit": "%"}, {"measurement": "inhibition at 10 g/ha", "setting": "Amaranthus retroflexus [3]; 480 h, PRE, AMARE, use rate 10 gai/ha, 20 DAT, read-out: solo application % activity", "value": 25, "unit": "%"}, {"measurement": "inhibition at […]", "setting": "Abutilon theophrasti [4]; 480 h, POST, ABUTH, use rate 2.5 gai/ha, 20 DAT, read-out: solo application % activity", "value": 20, "unit": "%"}, {"measurement": "inhibition at 10 g/ha", "setting": "Abutilon theophrasti [4]; 480 h, POST, ABUTH, use rate 10 gai/ha, 20 DAT, read-out: solo application % activity", "value": 20, "unit": "%"}, {"measurement": "inhibition at 10 g/ha", "setting": "Digitaria sanguinalis; 480 h, POST, DIGSA, use rate 10 gai/ha, 20 DAT, read-out: solo application % activity", "value": 25, "unit": "%"}, {"measurement": "inhibition at […]", "setting": "Echinochloa crus-galli [5]; 480 h, PRE, ECHCG, use rate 2.5 gai/ha, 20 DAT, read-out: solo application % activity", "value": 0, "unit": "%"}, {"measurement": "inhibition at 10 g/ha", "setting": "Echinochloa crus-galli [5]; 480 h, PRE, ECHCG, use rate 10 gai/ha, 20 DAT, read-out: solo application % activity", "value": 0, "unit": "%"}, {"measurement": "inhibition at […]", "setting": "Alopecurus myosuroides; 480 h, PRE, ALOMY, use rate 2.5 gai/ha, 20 DAT, read-out: solo application % activity", "value": 0, "unit": "%"}, {"measurement": "inhibition at 10 g/ha", "setting": "Alopecurus myosuroides; 480 h, PRE, ALOMY, use rate 10 gai/ha, 20 DAT, read-out: solo application % activity", "value": 0, "unit": "%"}, {"measurement": "inhibition at […]", "setting": "Euphorbia heterophylla [6]; 480 h, PRE, EPHHL, use rate 2.5 gai/ha, 20 DAT, read-out: solo application % activity", "value": 0, "unit": "%"}, {"measurement": "inhibition at 10 g/ha", "setting": "Euphorbia heterophylla [6]; 480 h, PRE, EPHHL, use rate 10 gai/ha, 20 DAT, read-out: solo application % activity", "value": 0, "unit": "%"}, {"measurement": "inhibition at […]", "setting": "Commelina benghalensis; 480 h, PRE, COMBE, use rate 2.5 gai/ha, 20 DAT, read-out: solo application % activity", "value": 10, "unit": "%"}, {"measurement": "inhibition at 10 g/ha", "setting": "Commelina benghalensis; 480 h, PRE, COMBE, use rate 10 gai/ha, 20 DAT, read-out: solo application % activity", "value": 10, "unit": "%"}]}
